Test results from patent US9029386B2, “Pyridine derivatives useful as kinase inhibitors” (YM Biosciences Australia Pty Ltd, priority 2006, dated 2015).

Assays:
[1] = target: T1, kinase domain of human CSF1-R (Homo sapiens, UniProt P07333); assay: Alphascreen protein tyrosine kinase assay, CSF-1R; type: biochemical
T1 construct: from codon I553 to Q961; made in house; host or cells: Sf9 insect cells (baculovirus)
T1 sequence (P07333 553-961): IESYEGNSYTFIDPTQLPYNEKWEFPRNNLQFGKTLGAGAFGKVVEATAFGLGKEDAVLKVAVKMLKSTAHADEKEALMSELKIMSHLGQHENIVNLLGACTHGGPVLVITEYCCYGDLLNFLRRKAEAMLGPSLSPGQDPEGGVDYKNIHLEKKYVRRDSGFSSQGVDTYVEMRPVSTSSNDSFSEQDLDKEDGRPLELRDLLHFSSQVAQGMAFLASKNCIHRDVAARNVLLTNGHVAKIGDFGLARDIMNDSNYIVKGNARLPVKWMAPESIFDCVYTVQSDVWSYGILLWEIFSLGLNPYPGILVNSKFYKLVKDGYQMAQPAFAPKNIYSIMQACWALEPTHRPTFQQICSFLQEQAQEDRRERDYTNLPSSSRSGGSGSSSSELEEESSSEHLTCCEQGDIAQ
Description: For screening purposes, compounds were diluted in 96 well plates at a concentration of 20 μM. Plates were warmed at 37° C. for 30 minutes before assay.
The kinase domain of human CSF1-R from codon I553 to Q961 was cloned into the pDEST-20 expression vector (Invitrogen). The CSF1-R plasmid was then transformed into competent DH10Bac cells (Gibco), and the recombinant baculovirus produced prepared for transfection into Sf9 insect cells.
Baculovirus preparations from each of construct were infected into five liters of SF9 cells (Invitrogen) grown in SF-900 medium (Invitrogen) to a cell density of approximately 1−2×10^6 cells/ml. […] Cells were harvested and lysed. Tyrosine kinase domains were purified by affinity chromatography on a glutathione-agarose column (Scientifix Pty. Ltd. catalog #: GSH-200).
Kinase assays were performed in 384 well Optiplates (Packard) using an Alphascreen Protein Tyrosine Kinase kit. […] Alphascreen phosphotyrosine acceptor beads followed by streptavidin donor beads were added under subdued light. The Alphascreen plates were read on a Packard Fusion Alpha. Inhibitors were added to the assays thirty minutes prior to the addition of ATP. Inhibitors were added in aqueous DMSO, with DMSO concentrations never exceeding 1%.

cSRC(h) = target: T2, cSRC(h) (Homo sapiens, UniProt P12931); assay: KinaseProfiler assay (Upstate), cSRC; type: biochemical
T2 construct: purchased Upstate Biotechnology (Dundee, UK), KinaseProfiler service
Description: (§1) Further enzyme assays were conducted at Upstate Biotechnology (Dundee, UK) in the KinaseProfiler™ Assay system.
(§2) The general protocol is as follows. All kinases are pre-diluted to a 10× working concentration prior to addition into the assay. The composition of the dilution buffer for the kinases is 20 mM MOPS pH 7.0, 1 mM EDTA, 0.1% β-mercaptoethanol, 0.01% Brij-35, 5% glycerol, 1 mg/ml BSA. All substrates are dissolved and diluted to working stocks in de-ionised water.

Flt1(h) = target: T3, Flt1(h) (Homo sapiens, UniProt P17948); assay: KinaseProfiler assay (Upstate), Flt1; type: biochemical
T3 construct: purchased Upstate Biotechnology (Dundee, UK), KinaseProfiler service
Description: as §1, §2
In a final reaction volume of 25 Flt1 (h) (5-10 mU) is incubated with 8 mM MOPS pH 7.0, 0.2 mM EDTA, 250 μM […], 10 mM MgAcetate and [γ-33P-ATP] (specific activity approx. 500 cpm/pmol, concentration as required). The reaction is initiated by the addition of the MgATP mix. After incubation for 40 minutes at room temperature, the reaction is stopped by the addition of 5 μl of a 3% phosphoric acid solution. 10 μl of the reaction is then spotted onto a P30 filtermat and washed three times for 5 minutes in 75 mM phosphoric acid and once in methanol prior to drying and scintillation counting.

Hck(h) = target: T4, Hck(h) (Homo sapiens, UniProt P08631); assay: KinaseProfiler assay (Upstate), Hck; type: biochemical
T4 construct: purchased Upstate Biotechnology (Dundee, UK), KinaseProfiler service
Description: as §1, §2
(§3) In a final reaction volume of 25 μl, Hck (h) (5-10 mU) is incubated with 8 mM MOPS pH 7.0, 0.2 mM EDTA, 250 μM […] (Cdc2 peptide), 10 mM MgAcetate and [γ-33P-ATP] (specific activity approx. 500 cpm/pmol, concentration as required). The reaction is initiated by the addition of the MgATP mix. After incubation for 40 minutes at room temperature, the reaction is stopped by the addition of 5 μl of a 3% phosphoric acid solution. 10 μl of the reaction is then spotted onto a P30 filtermat and washed three times for 5 minutes in 75 mM phosphoric acid and once in methanol prior to drying and scintillation counting.

Lck(h) = target: T5, Lck(h) (Homo sapiens, UniProt P06239); assay: KinaseProfiler assay (Upstate), Lck; type: biochemical
T5 construct: purchased Upstate Biotechnology (Dundee, UK), KinaseProfiler service
Description: as §1, §2
as §3, with “Lck” for “Hck”, “50” for “8”, “Tris” for “MOPS”, “7.5, 0.1” for “7.0, 0.2”, “EGTA, 0.1 mM Na3VO4,” for “EDTA,”

mNFS-60 = assay: Cellular assay (Alamar Blue), mNFS-60 with human M-CSF; type: cell-based; conditions: human M-CSF at 20 ng/ml, 72 hr
Description: Cells for the assays were prepared by harvesting cells from culture, and then diluting them in the appropriate growth medium to between 40,000 cell/mL and 600,000 cell/mL, depending on the cell line.
The compounds to be tested were added (104, 10× final concentration) to a flat bottomed 96-well plate. The cellular suspension (80 μL per well) was added, and one hour later the growth factor was added (human M-CSF at 20 ng/ml for mNFS-60, mouse IL-3 at 5 ng/ml for Baf3-WT). The plate was then incubated for 72 hr at 37° C., 5% CO2. Alamar Blue (10^4 per well) was added and the plates returned to the incubator for a further 4-8 hours.
The plates were then read using a fluorescence plate reader at excitation 544 nm and emission 590 nm.

T3 sequence (P17948 27-1338): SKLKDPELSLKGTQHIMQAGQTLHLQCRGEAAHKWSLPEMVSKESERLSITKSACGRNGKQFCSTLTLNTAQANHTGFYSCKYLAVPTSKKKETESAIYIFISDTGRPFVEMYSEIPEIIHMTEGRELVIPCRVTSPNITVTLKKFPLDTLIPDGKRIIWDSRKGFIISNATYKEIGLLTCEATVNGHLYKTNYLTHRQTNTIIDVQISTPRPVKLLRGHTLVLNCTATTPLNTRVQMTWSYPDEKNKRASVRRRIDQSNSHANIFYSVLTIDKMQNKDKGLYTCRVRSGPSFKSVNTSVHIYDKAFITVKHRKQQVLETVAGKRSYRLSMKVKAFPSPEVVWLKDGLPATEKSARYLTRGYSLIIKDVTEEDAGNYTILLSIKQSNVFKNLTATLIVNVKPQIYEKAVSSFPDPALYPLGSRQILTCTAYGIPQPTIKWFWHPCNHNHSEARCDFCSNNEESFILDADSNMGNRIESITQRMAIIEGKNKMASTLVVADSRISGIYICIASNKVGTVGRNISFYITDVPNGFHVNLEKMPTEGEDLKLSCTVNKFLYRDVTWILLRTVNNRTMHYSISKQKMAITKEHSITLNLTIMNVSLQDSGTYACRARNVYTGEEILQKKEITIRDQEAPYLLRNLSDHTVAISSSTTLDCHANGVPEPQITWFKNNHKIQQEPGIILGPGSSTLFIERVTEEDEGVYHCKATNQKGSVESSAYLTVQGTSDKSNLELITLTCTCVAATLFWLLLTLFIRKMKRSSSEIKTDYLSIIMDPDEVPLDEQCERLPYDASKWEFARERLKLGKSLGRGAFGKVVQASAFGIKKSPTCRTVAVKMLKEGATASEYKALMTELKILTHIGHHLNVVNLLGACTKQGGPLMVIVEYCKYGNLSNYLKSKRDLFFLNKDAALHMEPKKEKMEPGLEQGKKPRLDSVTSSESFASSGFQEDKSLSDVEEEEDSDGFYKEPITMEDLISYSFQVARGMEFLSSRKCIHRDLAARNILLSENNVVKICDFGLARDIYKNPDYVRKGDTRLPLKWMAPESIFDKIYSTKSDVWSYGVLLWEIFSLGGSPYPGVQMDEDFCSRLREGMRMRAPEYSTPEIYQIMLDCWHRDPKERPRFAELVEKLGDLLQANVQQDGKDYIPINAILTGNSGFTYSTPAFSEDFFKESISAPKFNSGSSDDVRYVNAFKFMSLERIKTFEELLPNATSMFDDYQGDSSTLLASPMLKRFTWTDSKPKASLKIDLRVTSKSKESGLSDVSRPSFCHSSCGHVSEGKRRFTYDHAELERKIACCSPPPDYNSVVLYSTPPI
T2 sequence (P12931 whole entry): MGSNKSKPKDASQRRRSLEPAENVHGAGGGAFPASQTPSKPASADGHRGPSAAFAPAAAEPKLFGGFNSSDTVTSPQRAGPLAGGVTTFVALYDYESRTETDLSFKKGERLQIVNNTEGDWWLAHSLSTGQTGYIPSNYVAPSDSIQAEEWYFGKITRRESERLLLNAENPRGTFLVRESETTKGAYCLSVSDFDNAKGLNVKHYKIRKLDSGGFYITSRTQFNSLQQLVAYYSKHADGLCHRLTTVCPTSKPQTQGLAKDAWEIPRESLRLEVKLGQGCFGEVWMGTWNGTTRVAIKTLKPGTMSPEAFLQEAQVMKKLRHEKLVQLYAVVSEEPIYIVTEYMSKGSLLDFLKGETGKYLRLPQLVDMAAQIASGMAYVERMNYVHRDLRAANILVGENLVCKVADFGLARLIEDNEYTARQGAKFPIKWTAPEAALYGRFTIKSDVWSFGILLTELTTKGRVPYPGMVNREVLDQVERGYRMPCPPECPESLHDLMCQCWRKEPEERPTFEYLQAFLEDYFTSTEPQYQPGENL
T4 sequence (P08631 whole entry): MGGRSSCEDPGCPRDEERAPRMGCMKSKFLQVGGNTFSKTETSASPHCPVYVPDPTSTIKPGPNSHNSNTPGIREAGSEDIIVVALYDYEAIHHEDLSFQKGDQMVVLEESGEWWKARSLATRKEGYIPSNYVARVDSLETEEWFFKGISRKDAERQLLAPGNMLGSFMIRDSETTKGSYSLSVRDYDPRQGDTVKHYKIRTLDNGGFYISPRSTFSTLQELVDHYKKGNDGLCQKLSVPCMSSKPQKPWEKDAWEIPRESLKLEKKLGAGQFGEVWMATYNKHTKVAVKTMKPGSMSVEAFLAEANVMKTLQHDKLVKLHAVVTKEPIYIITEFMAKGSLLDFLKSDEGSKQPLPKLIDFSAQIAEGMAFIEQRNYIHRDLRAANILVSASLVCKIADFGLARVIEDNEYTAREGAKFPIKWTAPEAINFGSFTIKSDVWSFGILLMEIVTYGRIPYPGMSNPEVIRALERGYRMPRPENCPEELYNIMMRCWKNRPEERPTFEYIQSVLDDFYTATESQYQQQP
T5 sequence (P06239 whole entry): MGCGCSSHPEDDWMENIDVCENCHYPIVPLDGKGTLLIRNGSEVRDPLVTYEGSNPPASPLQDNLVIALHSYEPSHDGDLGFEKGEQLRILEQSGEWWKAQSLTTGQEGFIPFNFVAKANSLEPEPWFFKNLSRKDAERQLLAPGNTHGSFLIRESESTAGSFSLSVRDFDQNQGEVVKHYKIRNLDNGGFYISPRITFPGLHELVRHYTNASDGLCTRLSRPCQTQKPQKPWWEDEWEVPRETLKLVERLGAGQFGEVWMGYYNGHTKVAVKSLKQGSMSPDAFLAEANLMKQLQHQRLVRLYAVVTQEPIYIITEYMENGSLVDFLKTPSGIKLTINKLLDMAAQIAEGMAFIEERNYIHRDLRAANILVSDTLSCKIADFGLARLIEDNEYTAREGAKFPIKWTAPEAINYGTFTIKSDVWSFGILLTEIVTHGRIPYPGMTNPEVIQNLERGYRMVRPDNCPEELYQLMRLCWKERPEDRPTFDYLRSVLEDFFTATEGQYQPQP

Row | IC50 [1] [µM] | inhibition at 0.1 µM (cSRC(h)) [%] | inhibition at 1 µM (cSRC(h)) [%] | inhibition at 0.1 µM (Flt1(h)) [%] | inhibition at 1 µM (Flt1(h)) [%] | inhibition at 0.1 µM (Hck(h)) [%] | inhibition at 1 µM (Hck(h)) [%] | inhibition at 0.1 µM (Lck(h)) [%] | inhibition at 1 µM (Lck(h)) [%] | Structure (SMILES) | IC50 (mNFS-60) [µM]
1 | < 0.1 | 23 | 74 | 98 | 100 | 64 | 95 | 45 | 84 | Cc1cccc(C(=O)Nc2cccc([C@H](C)Nc3cncc(-c4ccc(S(N)(=O)=O)cc4)n3)c2)c1 [Compound 77] | < 0.2
2 | – | 24 | 80 | 85 | 99 | 74 | 102 | 53 | 90 | C[C@H](Nc1cncc(Cl)n1)c1cccc(NC(=O)c2cccc(C(F)(F)F)c2)c1 [Compound 114, (S)—N-(3-(1-(6-chloropyrazin-2-ylamino)ethyl)phenyl)-3-(trifluoromethyl)benzamide] | < 1
3 | < 0.1 | 38 | 85 | 96 | 100 | 84 | 99 | 73 | 96 | Cc1cccc(C(=O)Nc2cccc([C@H](C)Nc3cncc(-c4ccc(N5CCN(C)CC5)cc4)n3)c2)c1 [Compound 129] | < 0.2
4 | < 0.1 | 1 | 14 | 92 | 99 | 23 | 84 | 0 | 16 | Cc1cccc(C(=O)Nc2cccc([C@H](C)Nc3cncc(C(N)=O)n3)c2)c1 [Compound 133, (S)-6-(1-(3-(3-methylbenzamido)phenyl)ethylamino)pyrazine-2-carboxamide] | < 0.2
5 | < 0.1 | 14 | 65 | 90 | 96 | 55 | 82 | 24 | 77 | Cc1cccc(C(=O)Nc2cccc([C@H](C)Nc3cncc(-n4ccnc4)n3)c2)c1 [Compound 143, (S)—N-(3-(1-(6-(1H-imidazol-1-yl)pyrazin-2-ylamino)ethyl)phenyl)-3-methylbenzamide] | < 0.2
6 | < 0.1 | 45 | 87 | 95 | 100 | 90 | 100 | 50 | 89 | Cc1cccc(C(=O)Nc2cccc([C@H](C)Nc3cncc(-c4cccc(N5CCOCC5)c4)n3)c2)c1 [Compound 147] | < 0.2
7 | < 0.1 | 86 | 96 | 92 | 99 | 96 | 99 | 95 | 97 | C[C@H](Nc1cncc(-c2ccc(N3CCN(C)CC3)cc2)n1)c1cccc(NC(=O)c2cccc(C(F)(F)F)c2)c1 [Compound 148] | < 0.2
8 | < 0.1 | 69 | 96 | 56 | 99 | 94 | 100 | 68 | 95 | C[C@H](Nc1cncc(-c2cccc(N3CCOCC3)c2)n1)c1cccc(NC(=O)c2cccc(C(F)(F)F)c2)c1 [Compound 149] | < 1
9 | – | 53 | 95 | 91 | 100 | 96 | 101 | 85 | 98 | Cc1cccc(C(=O)Nc2ccc(C)c([C@H](C)Nc3cncc(Cl)n3)c2)c1 [Compound 168] | –
